Source: US20260055061A1, “HALOPHTHALIMIDE COMPOUNDS AND METHODS OF USE AGAINST TBI, INFLAMMATORY DISORDER, AUTOIMMUNE DISORDER, NEURODEGENERATIVE DISEASE OR VIRAL INFECTION” (The United States of America, as represented by the …, priority 2022, published 2026)
pIC50: −log10 of the molar value.

How the values were obtained:
[1] = target: Ikaros (Homo sapiens (Human), UniProt Q13422); assay: Ikaros degradation in MM1.S cells (Western blot); format: cell-based; settings: 1 μM, relative to GAPDH
Procedure: (§1) For Western blot analysis, total proteins were extracted using RIPA buffer (ThermoFisher Scientific, Waltham, MA) containing Halt Protease Inhibitor Cocktail (ThermoFisher Scientific). […] After incubation at 4° C. overnight, the following HRP conjugated secondary antibodies were used: (i) goat anti-rabbit IgG (ThermoFisher Scientific) for ikaros and aiolos, and (ii) goat anti-mouse IgG (ThermoFisher Scientific) for SALL4 and GAPDH. […] Antigen-antibody complexes were detected using enhanced chemiluminescence (Thermo, iBright CL1500).
(§2) Specifically, MM1.S cells were obtained from ATCC (Manassas, VA, USA), grown in RPMI media supplemented with 10% FBS, penicillin 100 U/mL, and streptomycin […], and maintained at 37° C. and 5% CO2.
(§3) For Western blot analysis, total proteins were extracted using RIPA buffer (ThermoFisher Scientific, Waltham, MA, USA) containing Halt Protease Inhibitor Cocktail (ThermoFisher Scientific). Thereafter, the proteins were separated by gel electrophoresis and then transferred to polyvinylidene difluoride (PVDF) membranes (ThermoFisher Scientific), as described previously. […] Antigen-antibody complexes were detected using enhanced chemiluminescence (ThermoFisher Scientific, iBright CL1500).

[2] = test system: CCI-induced TBI mice; assay: CCI mouse model of TBI: DigiGait gait analysis; format: in vivo
Procedure: In vivo model of TBI: Mice were anesthetized with 2.5% tribromoethanol (Avertin: 250 mg/kg; Sigma, St. Louis, MO, USA) and placed in a stereotaxic frame (Kopf Instruments, Tujunga, CA, USA). A 4 mm craniotomy was performed using sterile procedures; the craniotomy point was selected midway between the lambda and bregma sutures and laterally midway between the central suture and the temporalis muscle. The skull fragment was then carefully removed without disruption of the underlying dura. Prior to injury induction, the tip of the impactor was angled and kept perpendicular to the exposed cortical surface. The mouse CCI instrument consisted of an electromagnetic impactor, Impact One (Leica Biosystems Inc., Buffalo Grove, IL, USA) that allows independent alteration of injury severity by controlling contact velocity and the level of cortical deformation. In these experiments, the contact velocity was set at 5.0 m/sec, the dwell time was set at 0.2 s and the deformation depth was set at 2 mm to produce a moderate TBI. The injury site was allowed to dry prior to suturing the wound. During surgery and recovery, the body temperature of the animals was maintained at 36-37° C. by using a heating pad. […] Mice were randomized following CCI to treatment with either of two doses of TFBP (16.25 mg/kg and 32.5 mg/kg, i.p.) or saline, and were dosed at 1 and 24 hr after the injury.
Behavioral assessment for motor functions and coordination: Behavioral tests were performed 1 week and 2 weeks after injury, to assess changes in motor functions and coordination. All tests were performed during the animals' light phase; cages were transported to testing rooms at least 30 min prior to testing.
Gait analysis: For the gait analysis, mice were tested on a fixed-speed treadmill apparatus (DigiGait; Mouse Specifics). Mice were habituated to the apparatus for 1 min, and then given a 1-min run at 5 cm/s. Following a 1-min rest, the treadmill speed was increased to 15 cm/s. Video was collected at high speed from a ventrally placed camera, and 3-5 s of representative gait video was selected by an experienced but blinded user for automated analysis.
In Vivo Model of TBI: TBI studies were conducted in 8-week-old male C57/BL6 mice (25-30 g; n=20), Jackson Laboratory, Bar Harbor, Maine USA. Mice were randomly assigned to four groups prior surgery, CMC+Sham, CMC+TBI, compound 30 (Low dose (LD), 14.78 mg/kg, prepared in 1% CMC in PBS)+TBI, compound 30 (High dose (HD), 29.57 mg/kg)+TBI, and evaluated the effects of compound 30 on TBI. Mice were assessed for gait function and motor coordination, balance function. Animals were subsequently evaluated for cellular changes using histological and immunohistochemistry staining. […]

[3] = target: SALL4 (Homo sapiens (Human), UniProt Q9UJQ4); assay: SALL4 expression in Tera-1 cells (Western blot); format: cell-based; settings: human Tera-1 cells; 0.01, 0.1, 1 μM; relative to GAPDH
Procedure: as §1, §2
For Western blot analysis, total proteins were extracted using RIPA buffer (ThermoFisher Scientific, Waltham, MA, USA) containing Halt Protease Inhibitor Cocktail (ThermoFisher Scientific). Thereafter, the proteins were separated by gel electrophoresis and then transferred to polyvinylidene difluoride (PVDF) membranes (ThermoFisher Scientific), as described previously. […] After incubation at 4° C. overnight, the following HRP-conjugated secondary antibodies were used: (i) goat anti-rabbit IgG (ThermoFisher Scientific) for Ikaros and Aiolos, and (ii) goat anti-mouse IgG (ThermoFisher Scientific) for SALL4 and GAPDH. […] Antigen-antibody complexes were detected using enhanced chemiluminescence (ThermoFisher Scientific, iBright CL1500).

[4] = target: cereblon (CRBN/DDB1-CUL4A-Rbx1 complex) / BRD3 (Homo sapiens (Human), UniProt Q96SW2); assay: Cereblon/BRD3 binding assay (AlphaScreen / FRET)
cereblon (CRBN/DDB1-CUL4A-Rbx1 complex) / BRD3, sequence (Q96SW2 whole entry): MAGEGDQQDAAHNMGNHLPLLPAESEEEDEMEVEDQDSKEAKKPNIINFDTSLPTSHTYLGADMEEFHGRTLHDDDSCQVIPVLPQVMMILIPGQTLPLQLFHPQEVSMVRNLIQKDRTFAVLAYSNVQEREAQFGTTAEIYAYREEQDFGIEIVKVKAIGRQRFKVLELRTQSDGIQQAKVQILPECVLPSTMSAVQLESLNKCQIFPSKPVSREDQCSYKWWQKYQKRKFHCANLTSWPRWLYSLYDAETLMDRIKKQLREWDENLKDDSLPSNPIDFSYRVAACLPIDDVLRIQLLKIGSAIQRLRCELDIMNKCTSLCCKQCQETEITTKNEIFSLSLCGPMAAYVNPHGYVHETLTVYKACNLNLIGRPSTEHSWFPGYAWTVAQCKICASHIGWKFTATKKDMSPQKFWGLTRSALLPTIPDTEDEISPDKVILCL
cereblon (CRBN/DDB1-CUL4A-Rbx1 complex) / BRD3, sequence (Q16531 whole entry partner): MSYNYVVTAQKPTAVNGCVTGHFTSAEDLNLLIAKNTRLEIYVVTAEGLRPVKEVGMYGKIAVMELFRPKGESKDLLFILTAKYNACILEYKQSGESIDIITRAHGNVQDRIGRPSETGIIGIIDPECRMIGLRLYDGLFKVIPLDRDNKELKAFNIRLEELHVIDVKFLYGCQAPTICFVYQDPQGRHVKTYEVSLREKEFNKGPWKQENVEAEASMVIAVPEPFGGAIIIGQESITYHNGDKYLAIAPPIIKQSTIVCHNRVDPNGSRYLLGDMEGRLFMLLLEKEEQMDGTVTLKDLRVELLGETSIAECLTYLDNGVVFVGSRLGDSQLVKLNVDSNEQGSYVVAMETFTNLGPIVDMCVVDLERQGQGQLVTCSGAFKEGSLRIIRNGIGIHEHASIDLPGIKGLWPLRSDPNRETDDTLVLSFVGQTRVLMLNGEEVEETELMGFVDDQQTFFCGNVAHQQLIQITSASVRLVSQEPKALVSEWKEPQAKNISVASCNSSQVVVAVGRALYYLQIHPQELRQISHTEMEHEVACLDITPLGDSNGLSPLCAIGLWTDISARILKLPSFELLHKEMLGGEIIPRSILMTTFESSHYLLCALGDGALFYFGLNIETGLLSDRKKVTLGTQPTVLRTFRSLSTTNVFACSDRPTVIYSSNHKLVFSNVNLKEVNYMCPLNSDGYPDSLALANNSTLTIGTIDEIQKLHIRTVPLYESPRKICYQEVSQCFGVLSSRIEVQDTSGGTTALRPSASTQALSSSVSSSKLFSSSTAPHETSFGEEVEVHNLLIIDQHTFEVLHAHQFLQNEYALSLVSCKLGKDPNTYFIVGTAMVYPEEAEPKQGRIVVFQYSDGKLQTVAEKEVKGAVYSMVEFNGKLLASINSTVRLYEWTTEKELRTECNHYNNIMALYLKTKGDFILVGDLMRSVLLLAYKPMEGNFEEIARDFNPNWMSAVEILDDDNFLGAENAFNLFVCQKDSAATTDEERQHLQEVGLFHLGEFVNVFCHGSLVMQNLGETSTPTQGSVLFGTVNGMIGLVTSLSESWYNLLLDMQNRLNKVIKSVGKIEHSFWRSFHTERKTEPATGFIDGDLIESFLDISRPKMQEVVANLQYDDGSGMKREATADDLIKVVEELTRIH
cereblon (CRBN/DDB1-CUL4A-Rbx1 complex) / BRD3, sequence (Q13619 whole entry partner): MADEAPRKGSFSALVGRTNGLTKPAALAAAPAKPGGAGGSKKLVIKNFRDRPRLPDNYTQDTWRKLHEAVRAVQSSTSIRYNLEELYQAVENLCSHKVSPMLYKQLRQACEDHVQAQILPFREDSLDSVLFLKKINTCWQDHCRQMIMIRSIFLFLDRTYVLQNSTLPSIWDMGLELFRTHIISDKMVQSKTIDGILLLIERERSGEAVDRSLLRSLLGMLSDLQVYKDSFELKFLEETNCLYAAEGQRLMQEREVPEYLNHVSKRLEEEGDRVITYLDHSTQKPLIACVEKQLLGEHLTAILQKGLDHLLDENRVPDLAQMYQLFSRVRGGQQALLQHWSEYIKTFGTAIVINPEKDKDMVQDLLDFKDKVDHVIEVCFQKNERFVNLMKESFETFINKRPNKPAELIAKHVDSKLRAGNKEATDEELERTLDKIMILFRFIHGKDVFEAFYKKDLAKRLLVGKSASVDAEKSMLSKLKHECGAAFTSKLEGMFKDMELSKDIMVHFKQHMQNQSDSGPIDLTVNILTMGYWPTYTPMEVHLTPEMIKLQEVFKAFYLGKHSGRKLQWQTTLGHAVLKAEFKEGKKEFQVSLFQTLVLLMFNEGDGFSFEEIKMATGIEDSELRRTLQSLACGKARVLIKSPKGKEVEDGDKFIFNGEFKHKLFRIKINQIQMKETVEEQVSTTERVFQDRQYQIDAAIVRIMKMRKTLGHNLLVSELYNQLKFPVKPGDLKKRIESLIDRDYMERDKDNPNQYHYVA
cereblon (CRBN/DDB1-CUL4A-Rbx1 complex) / BRD3, sequence (P62877 whole entry partner): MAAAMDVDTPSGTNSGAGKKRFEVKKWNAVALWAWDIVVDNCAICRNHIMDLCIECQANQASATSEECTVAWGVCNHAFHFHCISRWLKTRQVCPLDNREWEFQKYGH
Procedure: After 30 min of incubation with shaking at room temperature, AlphaLISA anti-FLAG Acceptor and Alpha Glutathione Donor beads (PerkinElmer) were sequentially added and then incubated for 1 hr at room temperature for each of the added chemicals. Alpha counts were thereafter read on a Synergy Neo2 (BioTek) for the analysis. Relative activity or inhibition was calculated as the highest value, which was set to 100%, and the lowest value was set to 0% after subtraction of the “blank value” from all readings.
After 30 min of incubation with shaking at room temperature, AlphaLISA anti-FLAG Acceptor and Alpha Glutathione Donor beads (PerkinElmer) were sequentially added and then incubated for 1 h at room temperature for each of the added chemicals. Alpha counts were thereafter read on a Synergy Neo2 (BioTek) for the analysis. The relative activity of the alpha signal was calculated after subtraction of the “blank value” from all readings, and the value of the vehicle group was then set as 100%.

[5] = target: Aiolos (Homo sapiens (Human), UniProt Q9UKT9); assay: Aiolos degradation in MM1.S cells (Western blot); format: cell-based; settings: 1 μM, relative to GAPDH
Procedure: as §1, §2, §3

[6] = test system: RAW 264.7 cells; assay: Cell viability of drug treated RAW 264.7 cells (CellTiter 96 AQueous One, MTS); settings: RAW 264.7 cells, percentage of vehicle control value, mean ± S.E.M., n = 3
[7] = test system: LPS-induced nitrite in RAW 264.7 cells; assay: LPS-induced nitrite production in RAW 264.7 cells (Griess reagent / fluorometric kit); format: cell-based, mouse; settings: LPS-challenged RAW 264.7 cells, percentage of vehicle control value (control = 100%), mean ± S.E.M., n = 3
Procedure: Nitrite ion detection in drug treated […] cell culture media: To measure the levels of nitrite ion NO2—) the Griess Reagent System (Promega, Madison, WI, Cat #G2930) was utilized. The protocol followed was that recommended by the manufacturer. In brief a NO2— ion standard curve was prepared in culture media of the same composition to that used for the cell culture study. The concentration range of the standard curve was from 1.5 µM to 100 µM. Equal volumes (50 μL) of standards and unknown samples were added to clear 96 well plates in duplicate. Then 50 μL of sulfanilamide solution was added to each well and the plate was covered and incubated in the dark for 10 min. After the incubation period 50 μL of N-1-napthylethylenediamine dihydrochloride solution was added to each well and the plate was incubated in dark for a further 10 min. After this incubation, the plate was read at 550 nm on a SPECTRAmax PLUS plate reader and the absorbances were used to generate a NO2— standard curve and the NO2— ion levels of the unknown samples are determined using SoftMax Pro V5, Molecular Devices.
Most neurons are highly vulnerable to RNS and ROS. Nitric oxide (NO) is one of RNSs, which is very short lived and cannot be readily measured. However, nitrite is a stable end product of nitric oxide metabolism. Therefore, nitrite acts as a surrogate measure of NO. The Griess Reagent System (Promega Corporation, Madison, WI) can be applied to measure nitrite levels in culture media following the manufacturer's protocol, and this system was used in the present study as it is a more sensitive assay compared to quantifying actions on TNF-α by ELISA assay. […] This challenge induces high level of TNF-α protein accompanied by a robust generation of nitrite.
(§4) Cells were propagated as described by ATCC guidelines.

[8] = Cytotoxicity in the anti-SARS-CoV-2 evaluation (FIG. 6); format: cell-based; settings: 25 μM
[9] = test system: SARS-CoV-2; assay: Anti-SARS-CoV-2 activity (FIG. 6); format: cell-based
[10] = test system: TNF-α; assay: LPS-induced TNF-α production in RAW 264.7 cells (ELISA); format: cell-based, mouse; settings: LPS-challenged RAW 264.7 cells, percentage of vehicle control value (control = 100%), mean ± S.E.M., n = 3
Procedure: Enzyme-linked immunosorbent assay for TNF-α protein: Media TNF-α levels were measured by use of the Biolegend ELISA MAX Set Delux ELISA (#430904). The protocol used was that recommended by the manufacturer. In brief, a day prior to performing the assay, a 96 well plate was coated with a capture antibody directed against TNF-α. The following day the assay plate was washed and blocked with the kit blocking agent for 1 h while being mixed on a plate shaker at 200 rpm (all incubations were mixed at 200 rpm unless stated otherwise). A TNF-α protein standard curve was prepared in the assay diluent following the kit instructions and unknown media samples were likewise diluted in the same assay diluent. After blocking, the plate was washed and then both the standards and unknown media samples were added to the plate in duplicate. The standards and unknown samples were incubated for 2 h. After the incubation, the plate was washed and then the biotin labeled detection antibody was added to each well and incubated for a further 1 h. After this incubation, the avidin-HRP conjugate complex was added to each well and incubated for 30 min. The plate was washed and the chromogenic substrate 3,3′,5,5′-tetramethylbenzidine solution was added to each well. At this point the plate was covered and incubated in the dark for 15 min, with no mixing. After 15 min the chromogenic reaction was stopped by the addition of 2 N H2SO4 and the absorbance was read at 450 nm and for background subtractions at 570 nm, on a SPECTRAmax PLUS plate reader. The absorbances were used to generate a TNF-α a protein standard curve and the protein levels in the unknown samples were determined using SoftMax Pro V5, Molecular Devices.
as §4

Compound | Ikaros levels [1] | gait % of brake phase ([2]; high dose 29.57 mg/kg) | gait propel time and % of propel phase ([2]; high dose 29.57 mg/kg) | gait brake time ([2]; low dose 14.78 mg/kg, 1 and 2 weeks after TBI) | SALL4 levels [3] | pIC50 ([4]; Example 6, FIG. 28A) | cereblon binding (in words) ([4]; cereblon/BRD3 binding FRET assay) | Aiolos levels [5] | Cell Viability % Δ ([6]; 1 μM) | Cell Viability % Δ ([6]; 10 μM) | nitrite level, % of vehicle control ([7]; 1 μM) | nitrite level, % of vehicle control ([7]; 10 μM) | cytotoxicity [8] | SARS-CoV-2 inhibitory activity [9] | TNF-α % Δ ([10]; 1 μM) | TNF-α % Δ ([10]; 10 μM)
4-amino-7-fluoro-2-(2-oxo-6-thioxopiperidin-3-yl)-3-thioxoisoindolin-1-one [Compound 30] | no significant effect | impairment of brake phase was ameliorated | significantly mitigate propel time and % of propel phase | significantly mitigated the deficit of brake time | no significant effect | 5.58 | potently bind to cereblon | no significant effect | – | – | – | – | – | – | – | –
C[C@@H]1[C@@H](N2C(=O)c3c(F)ccc(F)c3C2=O)C[C@H]2C[C@@H]1C2(C)C [Compound 18, 4,7-Difluoro-2-((1S,2S,3S,5R)-2,6,6-trimethylbicyclo[3.1.1]heptan-3-yl) isoindoline-1,3-dione] | – | – | – | – | – | – | – | – | 102 ± 4% | 76 ± 5% | 96 ± 4% | 71 ± 4% | preliminarily acceptable cytotoxicity | potent SARS-CoV-2 inhibitory activity | 101 ± 5% | 89 ± 5%
